According to patent publication US4853470A, “3-(piperidinyl)- and 3-(pyrrolidinyl)-1H-indazoles” (Hoechst-Roussel Pharmaceuticals, Inc., priority 1988, dated 1989):
Read-outs that look alike come from different tables or passages of the source.

What was measured:
[1] = tested on: mean arterial blood pressure; assay: antihypertensive activity, indirect tail cuff method, spontaneous hypertensive rat; format: in vivo; conditions: third day
Procedure: The compounds of the invention are also useful as antihypertensive agents due to their ability to depress blood pressure in mammals. Antihypertensive activity is measured in the spontaneous hypertensive rat by the indirect tail cuff method described in "Methods in Pharmacology," A. Schwartz, Ed., Vol. I, Appleton-Century Crofts, N.Y., 1971, p. 135. In this procedure a group of five animals are treated orally (p.o.) for three days with the test compound in relation to the control group of the same number. The drop in blood pressure is measured on the third day following administration. The antihypertensive activities of some of the compounds, expressed as mm decrease in mean arterial blood pressure are given below: […]

[2] = tested on: tetrabenazine induced ptosis; assay: tetrabenazine induced ptosis assay (antidepressant activity); format: in vivo, mice; conditions: Mus musculus, ip, read-out: ED50, inhibition of ptosis
Description: The 3-(piperidinyl)- and 3-(pyrrolidinyl)-1H-indazoles of the present invention are also useful as antidepressants by virtue of their ability to elicit an antidepressant response in mammals. […] Thus, for example,. the intraperitoneal (i.p.) dose effecting an estimated 50% inhibition of ptosis (ED50) in mice produced in this assay is as follows: […]

`COC(=N)N1CCC(c2n[nH]c3ccccc23)CC1` [4-(1H-indazol-3-yl)piperidine-1-carboximidic acid methyl ester] was tested. Which “Decrease in Blood Pressure” value ([1]; 3 mg/kg p.o.) did it give?
The value was 47 mm Hg.

How did the “Decrease in Blood Pressure” value ([1]; 30 mg/kg p.o.) turn out when `COC(=N)N1CCC(c2n[nH]c3cc(F)ccc23)CC1` [4-(6-fluoro-1H-indazol-3-yl)piperidine-1-carboximidic acid methyl ester] was run?
The value was 88 mm Hg.

For `N=C(N)NCCN1CCCCCCC1` [guanethidine, reference compound], which “Decrease in Blood Pressure” value ([1]; 50 mg/kg p.o.) is on record?
The value was 20 mm Hg.

For `CN1CCC(c2nn(-c3ccccc3F)c3cc(F)ccc23)CC1.O=C(O)/C=C/C(=O)O` [6-Fluoro-1-(2-fluorophenyl)-3-(1-methyl-4-piperidinyl)-1H-indazole fumarate], which ED50 ([2]; estimated 50% inhibition) is on record?
The ED50 was 6.3 mg/kg.

With `CN1CCC(c2nn(-c3ccccc3F)c3ccccc23)CC1.Cl` [1-(2-Fluorophenyl)-3-(1-methyl-4-piperidinyl)-1H-indazole hydrochloride] as the compound, how does the ED50 ([2]; estimated 50% inhibition) read?
Its ED50 is 1.7 mg/kg.

For `Clc1ccccc1-n1nc(C2CCNCC2)c2ccccc21.O=C(O)/C=C/C(=O)O` [1-(2-Chlorophenyl)-3-(4-piperidinyl)-1H-indazole fumarate], which ED50 ([2]; estimated 50% inhibition) is on record?
Its ED50 is 5.9 mg/kg.

How did the ED50 [2] turn out when `CN(C)CCCN1c2ccccc2CCc2ccccc21` [imipramine, reference compound] was run?
Its ED50 is 1.3 mg/kg.
